Measurements: patent US20260027243A1, “AMPHIPHILIC COMPOUNDS FOR ATTENUATING NEUROTOXICITY OF AMYLOID-beta OLIGOMERS AND DIAGNOSTIC METHODS” (THE BOARD OF TRUSTEES OF THE UNIVERSITY OF ILLINOIS, priority 2022, published 2026)
Read-outs that look alike come from different tables or passages of the source.

Assays:
Aβ42 oligomers = target: T1, Aβ42 oligomers (Homo sapiens, UniProt P05067); assay: Fluorescence saturation binding assay with Aβ42 oligomers; details: for Kd: read-out: Kd, Oligomers; for binding affinity to oligomers compared with fibrils (Kd comparison): amphiphilic ZY compounds
T1 construct: commercial Aβ42 monomer powder (from GL biochem); purchased GL biochem
T1 sequence (P05067 672-713 limits assumed): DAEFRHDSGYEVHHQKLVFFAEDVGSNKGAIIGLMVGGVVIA
Protocol: Aβ42 oligomers: The 0.5 mg monomeric films were dissolved in 1.1 mL PBS buffer (with final DMSO concentration less than 1%) and incubated at 4° C. overnight. The resulting solution was then centrifuged at 3000 rpm for 15 mins to remove the insoluble aggregates. The clear supernatant was then used for the following experiments. Aβ42 oligomers concentration was checked by measuring the absorbance of the supernatant at 280 nm.
(§1) In Vitro Saturation Binding Studies with Aβ42 Fibrils and Aβ42 Oligomers. To a solution of increasing concentrations of compounds, a fixed concentration of the generated aggregated Aβ42 fibrils or Aβ42 oligomers solutions (5 to 15 NM) was added to yield a total volume of 100 μL. Nonspecific binding was determined […]. The mixture was incubated for 15 min at room temperature. All fluorescence data were obtained on a SpectraMax M2e plate reader (Molecular Devices). The fluorescent intensity was measured at the corresponding emission wavelength of each compound, and the Kd binding curves were generated by GraphPad Prism 8.0 with one site-specific binding model. Equation: Y=Bmax*X/(Kd+X).

Aβ42 fibrils = target: T2, Aβ42 fibrils (Homo sapiens, UniProt P05067); assay: Fluorescence saturation binding assay with Aβ42 fibrils; details: read-out: Kd, Fibrils
T2 construct: commercial Aβ42 monomer powder (from GL biochem); purchased GL biochem
T2 sequence (P05067 672-713 limits assumed): as above
Protocol: Preparation of the Aβ42 Fibrils and Aβ42 Oligomers. Aβ42 fibrils: 1 mg of commercial Aβ42 monomer powder (from GL biochem) was dissolved in 1 mL 1,1,1,3,3,3-hexafluoro-2-propanol (HFIP) at room temperature and incubated for 1 h. The resulting solution was divided equally into two Eppendorf tubes. The solution in each Eppendorf tube containing 0.5 mg Aβ42 monomer was then evaporated overnight and dried by vacuum centrifuge to generate monomeric films. […] Aβ42 fibrils solution was prepared by dissolving the 0.5 mg monomeric films in 1.1 mL PBS buffer (with final DMSO concentration less than 1%) and stirring at 37° C. for 3 days.
as §1

[1] = Log D by octanol-PBS partition; assay type: physicochemical; details: DCM compounds
Protocol: Log D measurements. The Log D value was measured following a published procedure using slight modifications. In general, compounds in 0.5 mL octanol was subjected to partition with 0.5 mL octanol-saturated PBS. The whole mixture was stirred vigorously for 5 min, and centrifuged at 2,000 rpm for 5 min. The top octanol layer was separated for later fluorescence measurement. The remaining PBS layer was partitioned with 0.5 mL PBS-saturated octanol, and the second top octanol layer was then separated after vigorous stirring and centrifuging at 2,000 rpm for another 5 min. The two octanol layers' fluorescence spectra were recorded. The log D value was calculated by the fluorescence intensity ratio at the compounds' emission wavelength for the above two octanol extractions.

Aβ oligomers = details: cited from earlier work
[2] = tested on: mouse neuroblastoma N2a cells; assay: Alamar blue cytotoxicity in N2a cells; assay type: cell-based; details: for relative cytotoxicity: comparison among compounds
Protocol: Cytotoxicity Studies. Alamar Blue assay was chosen for the cytotoxicity studies. Mouse neuroblastoma Neuro2A (N2A) cells were grown with DMEM/10% FBS in a petri dish at 37° C. in a humidified atmosphere with 5% CO2. Then N2A cells were seeded in a 96-well plate (1.0×10^4/well). After 24 h incubation, cell media was changed to DMEM/N-2, and N2A cells were incubated for another 1 h. Then the cells were treated with different concentrations of compounds for 40 h, Alamar Blue solution (10 μL) was added, and the cells were incubated for another 90 min at 37° C. The fluorescence intensity of each well was measured at 590 nm (excitation wavelength=560 nm).

[3] = tested on: Cu^2+-Aβ42-induced toxicity in Neuro2A cells; assay: Cu2+-Aβ42-induced toxicity, Alamar blue cell viability; assay type: cell-based, mouse; details: [Aβ42]=40 μM, [Cu^2+]=40 μM, compound 10 μM (ZY-12-OMe 5 μM)
Protocol: FIG. 6. Cell viability results upon incubation of Neuro2A cells with monomeric Aβ42 in the presence or absence of metal ions and amphiphilic compounds. Concentrations: [Aβ42]=40 μM, [Cu^2+]=40 μM, [ZY-12-MT]=[ZY-15-OMe]=[ZY-15-MT]=[ZY-17-MT]=[ZY-5-OMe]=[ZY-5-MT]=[ZY-5-DT]=10 μM, [ZY-12-OMe]=5 μM. The error bars represent the standard deviation from five independent experiments, and the statistical analysis was evaluated according to one-way ANOVA (*p<0.05).
For the Cu^2+-Ap-induced toxicity studies, cells treated were monomeric Aβ42, Cu^2+, monomeric Aβ42+Cu^2+, and monomeric Aβ42+Cu^2++ compounds, respectively. After 40 h incubation, Alamar Blue solution (10 μL) was added, and the cells were incubated for another 90 min at 37° C. The fluorescence intensity of each well was measured at 590 nm (excitation wavelength=560 nm).

| Kd (Aβ42 oligomers; Table 1, amphiphilic compounds) [nM] | Kd (Aβ42 fibrils; Table 1, amphiphilic compounds) [nM] | Compound | binding affinity to oligomers compared with fibrils (Kd comparison) (Aβ42 oligomers) | further results |
| --- | --- | --- | --- | --- |
| 1030 ± 200 | 2250 ± 460 | COc1cc(OC)cc(-c2ccc(/C=C/c3cc(CN4CCN(C)CCN(C)CC4)c(O)c(CN4CCN(C)CCN(C)CC4)c3)cc2)c1 [ZY-17-DT, (E)-4-(2-(3′,5′-dimethoxy-[1,1′-biphenyl]-4-yl)vinyl)-2,6-bis((4,7-dimethyl-1,4,7-triazonan-1-yl)methyl)phenol] | higher binding affinity to oligomers over fibrils | relative cytotoxicity [2]: higher citotoxicity than others |
| 2080 ± 340 | 940 ± 70 | COc1cc(OC)cc(-c2ccc(/C=C/c3ccc(O)c(CN4CCN(C)CCN(C)CC4)c3)cc2)c1 [ZY-17-MT, (E)-4-(2-(3′,5′-dimethoxy-[1,1′-biphenyl]-4-yl)vinyl)-2-((4,7-dimethyl-1,4,7-triazonan-1-yl)methyl)phenol] | – | – |
| 6270 ± 1010 | 4190 ± 870 | CN1CCN(C)CCN(Cc2cc(-c3ccc(/C=C/c4ccc(N(C)C)cc4)s3)ccc2O)CC1 [ZY-12-MT, (E)-2-((4,7-dimethyl-1,4,7-triazonan-1-yl)methyl)-4-(5-(4-(dimethylamino)styryl)thiophen-2-yl)phenol] | – | effect on cell viability under Cu^2+-Aβ42 toxicity [3]: significantly increase cell viability |
| 120 | 180 ± 20 | COc1cc(OC)cc(-c2ccc(/C=C/c3cc(CN4CCN(C)CCN(C)CC4)c(O)c(OC)c3)cc2)c1 [ZY-17-OMe, (E)-4-(2-(3′,5′-dimethoxy-[1,1′-biphenyl]-4-yl)vinyl)-2-((4,7-dimethyl-1,4,7-triazonan-1-yl)methyl)-6-methoxyphenol] | higher binding affinity to oligomers over fibrils | relative cytotoxicity [2]: the highest toxicity |
| 4550 ± 320 | 1270 ± 100 | CN1CCN(C)CCN(Cc2cc(/C=C/c3ccc(-c4ccc(C=O)cc4)s3)cc(CN3CCN(C)CCN(C)CC3)c2O)CC1 [ZY-15-DT, (E)-4-(5-(3,5-bis((4,7-dimethyl-1,4,7-triazonan-1-yl)methyl)-4-hydroxystyryl)thiophen-2-yl)benzaldehyde] | – | – |
| 320 ± 40 | 390 ± 40 | COc1cc(-c2ccc(/C=C/c3ccc(N(C)C)cc3)s2)cc(CN2CCN(C)CCN(C)CC2)c1O [ZY-12-OMe, (E)-2-((4,7-dimethyl-1,4,7-triazonan-1-yl)methyl)-4-(5-(4-(dimethylamino)styryl)thiophen-2-yl)-6-methoxyphenol] | higher binding affinity to oligomers over fibrils | cell viability ([2]; at 5 μM): more than 75%; cell viability ([2]; at 10 μM): less than 50%; relative cytotoxicity [2]: higher citotoxicity than others |

The remaining lines, values behind:

| Compound | Kd (Aβ42 oligomers; Table 1, amphiphilic compounds) [nM] | Kd (Aβ42 fibrils; Table 1, amphiphilic compounds) [nM] | binding affinity to oligomers compared with fibrils (Kd comparison) (Aβ42 oligomers) | further results |
| --- | --- | --- | --- | --- |
| CN1CCN(C)CCN(Cc2cc(/C=C/c3ccc(-c4ccc(N(C)C)cc4)s3)cc(CN3CCN(C)CCN(C)CC3)c2O)CC1 [ZY-5-DT, (E)-2,6-bis((4,7-dimethyl-1,4,7-triazonan-1-yl)methyl)-4-(2-(5-(4-(dimethylamino)phenyl)thiophen-2-yl)vinyl)phenol] | 2090 ± 360 | 1670 ± 190 | – | – |
| CN1CCN(C)CCN(Cc2cc(/C=C/C3=CC(=C(C#N)C#N)c4ccccc4O3)ccc2O)CC1 [DCM-OH-1-MT, (E)-2-(2-(3-((4,7-dimethyl-1,4,7-triazonan-1-yl)methyl)-4-hydroxystyryl)-4H-chromen-4-ylidene)malononitrile] | – | – | – | Kd (Aβ42 oligomers; Table 3, DCM compounds): 670 ± 190 nM; Kd (Aβ42 fibrils; Table 3, DCM compounds): 580 ± 70 nM; logD [1]: 1.65 ± 0.06 |
| CCOc1cccc(C=Cc2cc(C)c3n2[B-](F)(F)[N+]2=C(CCC(=O)OCC(Cl)(Cl)Cl)C=CC2=C3)c1O [BD-Oligo] | – | – | – | Kd (Aβ oligomers; reported oligomer-selective probes): 400 nM |
| N#CC(C#N)=C1C=C(/C=C/c2ccc(O)cc2)Oc2ccccc21 [DCM-OH-1] | – | – | – | logD [1]: 1 ± 0.04 |
| CN1CCN(C)CCN(Cc2cc(/C=C/C3=CC(=C(C#N)C#N)c4ccccc4O3)cc(CN3CCN(C)CCN(C)CC3)c2O)CC1 [DCM-OH-1-DT, (E)-2-(2-(3,5-bis((4,7-dimethyl-1,4,7-triazonan-1-yl)methyl)-4-hydroxystyryl)-4H-chromen-4-ylidene)malononitrile] | – | – | – | Kd (Aβ42 oligomers; Table 3, DCM compounds): 2880 ± 540 nM; Kd (Aβ42 fibrils; Table 3, DCM compounds): 1850 ± 190 nM; logD [1]: 1.51 ± 0.018 |
| CCN(CC)c1ccc(/C=C/C2=[O+][B-](F)(F)OC(/C=C/c3ccc(N(CC)CC)nc3)=C2CCCOc2c(C)cccc2C)cn1 [CRANAD-102] | – | – | – | Kd (Aβ oligomers; reported values): 7.5 nM |
| CN1CCN(C)CCN(Cc2cc(/C=C/c3ccc(-c4ccc(N(C)C)cc4)s3)ccc2O)CC1 [ZY-5-MT, (E)-2-((4,7-dimethyl-1,4,7-triazonan-1-yl)methyl)-4-(2-(5-(4-(dimethylamino)phenyl)thiophen-2-yl)vinyl)phenol] | 460 ± 60 | 1820 ± 130 | higher binding affinity to oligomers over fibrils | selectivity to Aβ oligomers over Aβ fibrils (Aβ42 oligomers; ratio of Kd values): 3.9 times |
| COc1cc(/C=C/c2ccc(-c3ccc(N(C)C)cc3)s2)cc(CN2CCN(C)CCN(C)CC2)c1O [ZY-5-OMe, (E)-2-((4,7-dimethyl-1,4,7-triazonan-1-yl)methyl)-4-(2-(5-(4-(dimethylamino)phenyl)thiophen-2-yl)vinyl)-6-methoxyphenol] | 1040 ± 150 | 680 ± 100 | – | effect on cell viability under Cu^2+-Aβ42 toxicity [3]: significantly increase cell viability |
| CN1CCN(C)CCN(Cc2cc(-c3ccc(/C=C/c4ccc(N(C)C)cc4)s3)cc(CN3CCN(C)CCN(C)CC3)c2O)CC1 [ZY-12-DT, (E)-2,6-bis((4,7-dimethyl-1,4,7-triazonan-1-yl)methyl)-4-(5-(4-(dimethylamino)styryl)thiophen-2-yl)phenol] | 670 ± 150 | 1380 ± 240 | higher binding affinity to oligomers over fibrils | relative cytotoxicity [2]: higher citotoxicity than others |
